From ChEMBL document CHEMBL1201862, “PubChem BioAssay data set” (2004) come the findings set out here.

The target of experiment [1] is T1, Ubiquitin-conjugating enzyme E2 N (Homo sapiens, UniProt P61088).
T1 sequence (P61088 whole entry): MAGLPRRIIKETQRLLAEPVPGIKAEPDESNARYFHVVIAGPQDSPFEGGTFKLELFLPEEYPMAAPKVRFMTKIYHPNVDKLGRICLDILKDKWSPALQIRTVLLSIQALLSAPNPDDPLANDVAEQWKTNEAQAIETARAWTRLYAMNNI
The class given is functional.

Experiment [2] concerns the target T1, Ubiquitin-conjugating enzyme E2 N. The class given is functional. This is another data set of the same source.
The next experiment deals with T2, Bcl-2-related protein A1 (Mus musculus, UniProt Q07440).
T2 sequence (Q07440 whole entry): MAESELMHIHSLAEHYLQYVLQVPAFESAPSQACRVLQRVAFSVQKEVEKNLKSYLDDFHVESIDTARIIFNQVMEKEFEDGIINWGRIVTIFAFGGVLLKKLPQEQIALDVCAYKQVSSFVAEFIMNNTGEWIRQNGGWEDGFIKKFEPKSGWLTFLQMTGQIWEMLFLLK
It is filed as functional.

In experiment [3] the target is T3, Short transient receptor potential channel 4 (Mus musculus, UniProt Q9QUQ5).
T3 sequence (Q9QUQ5 whole entry): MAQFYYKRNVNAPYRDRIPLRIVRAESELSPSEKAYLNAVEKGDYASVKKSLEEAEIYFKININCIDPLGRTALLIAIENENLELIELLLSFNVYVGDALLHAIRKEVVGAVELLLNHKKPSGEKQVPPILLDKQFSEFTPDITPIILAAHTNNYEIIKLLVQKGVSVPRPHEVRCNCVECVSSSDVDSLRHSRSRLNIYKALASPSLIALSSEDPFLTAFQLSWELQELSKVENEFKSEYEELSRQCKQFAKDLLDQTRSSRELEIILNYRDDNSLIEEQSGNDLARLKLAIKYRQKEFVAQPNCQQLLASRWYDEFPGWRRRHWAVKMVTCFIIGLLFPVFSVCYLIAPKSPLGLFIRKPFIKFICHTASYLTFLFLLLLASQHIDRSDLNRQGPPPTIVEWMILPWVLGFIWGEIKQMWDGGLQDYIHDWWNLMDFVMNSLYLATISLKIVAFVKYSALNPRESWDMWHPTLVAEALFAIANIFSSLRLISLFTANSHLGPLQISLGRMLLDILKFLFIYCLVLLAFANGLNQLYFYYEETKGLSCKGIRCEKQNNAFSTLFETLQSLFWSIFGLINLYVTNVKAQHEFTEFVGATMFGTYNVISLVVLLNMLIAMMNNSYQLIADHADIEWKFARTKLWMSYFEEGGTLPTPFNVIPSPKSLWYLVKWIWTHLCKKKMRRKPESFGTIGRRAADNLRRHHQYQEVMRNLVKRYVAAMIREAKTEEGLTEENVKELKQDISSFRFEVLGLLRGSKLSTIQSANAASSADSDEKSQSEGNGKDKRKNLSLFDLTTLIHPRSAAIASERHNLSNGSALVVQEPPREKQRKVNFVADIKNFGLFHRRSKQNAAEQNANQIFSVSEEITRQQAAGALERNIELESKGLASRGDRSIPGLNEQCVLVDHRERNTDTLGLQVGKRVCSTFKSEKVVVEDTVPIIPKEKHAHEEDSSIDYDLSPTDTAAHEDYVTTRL
Description: calcium entry via TRPC4 opening agents – cell-based, HEK293 TRPC4/mu-opioid, Fluo-4 calcium, dose response (AID 434937). It is filed as functional.

Another experiment deals with Nonstructural protein 1 (Influenza A virus, UniProt Q194T2). The class given is functional, Influenza A virus (A/California/07/2009(H1N1)).
Nonstructural protein 1, sequence (Q194T2 whole entry): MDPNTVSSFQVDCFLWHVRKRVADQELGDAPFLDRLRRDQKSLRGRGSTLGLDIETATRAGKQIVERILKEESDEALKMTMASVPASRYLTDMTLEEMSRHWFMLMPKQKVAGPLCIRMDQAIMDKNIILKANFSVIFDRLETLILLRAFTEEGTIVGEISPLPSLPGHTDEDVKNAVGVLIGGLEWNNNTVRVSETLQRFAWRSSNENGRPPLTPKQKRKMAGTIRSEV
Another experiment deals with T4, Caspase-3 (Homo sapiens, UniProt P42574).
T4 sequence (P42574 whole entry): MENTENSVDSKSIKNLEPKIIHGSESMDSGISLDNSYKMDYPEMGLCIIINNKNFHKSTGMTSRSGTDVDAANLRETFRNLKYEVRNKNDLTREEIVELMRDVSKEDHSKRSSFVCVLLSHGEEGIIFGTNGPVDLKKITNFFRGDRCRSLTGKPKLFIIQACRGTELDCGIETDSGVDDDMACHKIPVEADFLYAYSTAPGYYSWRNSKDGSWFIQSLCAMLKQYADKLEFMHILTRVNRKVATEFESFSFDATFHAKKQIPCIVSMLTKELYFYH
It is filed as functional.

Experiment [4] deals with T5, Sentrin-specific protease 7 (Homo sapiens, UniProt Q9BQF6).
T5 sequence (Q9BQF6 whole entry): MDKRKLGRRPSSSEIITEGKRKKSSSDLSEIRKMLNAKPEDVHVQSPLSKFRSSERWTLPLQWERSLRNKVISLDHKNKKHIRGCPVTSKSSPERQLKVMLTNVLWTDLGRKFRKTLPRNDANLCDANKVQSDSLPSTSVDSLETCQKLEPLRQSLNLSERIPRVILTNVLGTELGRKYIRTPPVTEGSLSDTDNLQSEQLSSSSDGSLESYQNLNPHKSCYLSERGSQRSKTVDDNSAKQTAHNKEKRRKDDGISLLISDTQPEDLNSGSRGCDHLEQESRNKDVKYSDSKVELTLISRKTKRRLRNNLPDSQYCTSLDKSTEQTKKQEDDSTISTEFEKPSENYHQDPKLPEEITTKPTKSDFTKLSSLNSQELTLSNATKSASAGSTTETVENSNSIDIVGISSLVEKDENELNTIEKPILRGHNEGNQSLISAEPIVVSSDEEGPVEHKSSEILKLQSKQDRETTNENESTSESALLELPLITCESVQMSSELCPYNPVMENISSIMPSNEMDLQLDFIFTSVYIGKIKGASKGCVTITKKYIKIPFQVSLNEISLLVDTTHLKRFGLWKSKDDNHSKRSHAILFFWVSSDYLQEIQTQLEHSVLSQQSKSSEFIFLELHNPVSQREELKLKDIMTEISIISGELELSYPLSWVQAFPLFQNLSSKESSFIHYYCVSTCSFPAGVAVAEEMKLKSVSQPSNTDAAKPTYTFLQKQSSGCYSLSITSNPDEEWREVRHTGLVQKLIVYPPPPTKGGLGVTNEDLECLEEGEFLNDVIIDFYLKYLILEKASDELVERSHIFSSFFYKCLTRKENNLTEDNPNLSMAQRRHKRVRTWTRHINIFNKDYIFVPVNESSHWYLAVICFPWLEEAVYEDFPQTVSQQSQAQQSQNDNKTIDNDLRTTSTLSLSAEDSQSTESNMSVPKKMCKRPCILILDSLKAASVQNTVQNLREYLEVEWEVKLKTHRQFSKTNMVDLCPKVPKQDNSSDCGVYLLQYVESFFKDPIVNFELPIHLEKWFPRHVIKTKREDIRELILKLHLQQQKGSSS
It is filed as functional.

Experiment [5] has as its target T6, Sentrin-specific protease 6 (Homo sapiens, UniProt Q9GZR1).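 Note: Luminescence-based dose-response confirmatory assay of SENP6 inhibition, following up an ultra-high-throughput screen.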
T6 sequence (Q9GZR1 whole entry): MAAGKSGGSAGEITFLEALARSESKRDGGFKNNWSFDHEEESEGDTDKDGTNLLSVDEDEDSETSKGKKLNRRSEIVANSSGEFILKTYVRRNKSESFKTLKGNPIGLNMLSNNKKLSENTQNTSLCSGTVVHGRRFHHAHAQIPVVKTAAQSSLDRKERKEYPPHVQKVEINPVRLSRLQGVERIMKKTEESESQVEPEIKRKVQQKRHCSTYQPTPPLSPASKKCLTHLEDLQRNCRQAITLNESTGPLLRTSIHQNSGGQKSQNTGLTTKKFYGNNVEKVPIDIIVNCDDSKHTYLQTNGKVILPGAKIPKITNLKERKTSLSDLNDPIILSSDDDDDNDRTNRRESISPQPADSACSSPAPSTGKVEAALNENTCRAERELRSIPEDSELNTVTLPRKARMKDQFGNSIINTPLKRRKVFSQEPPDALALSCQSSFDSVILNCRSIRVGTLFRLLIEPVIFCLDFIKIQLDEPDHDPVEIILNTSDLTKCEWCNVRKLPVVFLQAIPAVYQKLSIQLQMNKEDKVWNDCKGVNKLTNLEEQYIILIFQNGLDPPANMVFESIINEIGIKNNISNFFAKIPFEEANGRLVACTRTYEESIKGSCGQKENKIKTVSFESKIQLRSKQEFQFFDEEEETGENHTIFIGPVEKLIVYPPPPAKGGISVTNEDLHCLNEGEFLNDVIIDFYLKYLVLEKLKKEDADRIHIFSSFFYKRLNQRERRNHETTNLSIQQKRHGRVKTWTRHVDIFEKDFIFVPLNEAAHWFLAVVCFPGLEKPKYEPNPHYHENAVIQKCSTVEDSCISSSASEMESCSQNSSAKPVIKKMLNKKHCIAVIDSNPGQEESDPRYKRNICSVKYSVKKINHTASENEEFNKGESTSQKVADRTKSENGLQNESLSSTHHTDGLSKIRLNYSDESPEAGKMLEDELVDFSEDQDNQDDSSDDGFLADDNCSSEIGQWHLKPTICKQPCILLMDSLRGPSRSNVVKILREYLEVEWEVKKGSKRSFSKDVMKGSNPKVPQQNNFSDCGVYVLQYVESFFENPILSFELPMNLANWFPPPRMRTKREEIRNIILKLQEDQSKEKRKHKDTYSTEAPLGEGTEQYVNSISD
It is filed as functional.

In experiment [6] the target is T7, Sentrin-specific protease 8 (Homo sapiens, UniProt Q96LD8).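 Note: luminescence read-out of SENP8 inhibition, dose-response confirmation following an ultra-high-throughput screen.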
T7 sequence (Q96LD8 whole entry): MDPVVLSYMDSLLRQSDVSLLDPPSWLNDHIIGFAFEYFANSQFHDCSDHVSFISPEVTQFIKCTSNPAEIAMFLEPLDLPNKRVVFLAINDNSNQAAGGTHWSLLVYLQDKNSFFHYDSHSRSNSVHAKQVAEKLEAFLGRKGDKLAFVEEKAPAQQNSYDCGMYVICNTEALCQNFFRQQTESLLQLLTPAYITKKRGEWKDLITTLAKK
The class given is functional.

Another experiment has as its system H9c2. Description: cells. It is filed as functional, cell-based. Particulars: Rattus norvegicus, H9c2, Myocardium.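 Note: confirmatory concentration-response retest of ultra-high-throughput screening hits for modulation of myocardial damage; cell death induced by hydrogen peroxide oxidative stress; compound pretreatment for 60 min then peroxide exposure for 2 h; potency is for protecting the cells against peroxide damage rather than for killing them.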
The subject of experiment [7] is Vero. Put plainly: cells. It is filed as functional, cell-based. Particulars: Chlorocebus sabaeus.
The next experiment concerns Streptococcus. Description: GAS UMAA2166 growth inhibition – luminescence, BacTiterGlo, counter-screen for streptokinase expression inhibitor project, dose response (AID 1915).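 Note: potency for reduction of bacterial viability or growth.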 It is filed as functional, organism-based.
Experiment [8] relates to Vero. Description: cells. The class given is functional. The settings on record: Chlorocebus sabaeus.
The subject of experiment [9] is Streptococcus sp. 'group A'. Put plainly: Streptococcus pyogenes SK(-)GAS viability under kanamycin – luminescence, BacTiterGlo, confirmation, counter-screen for streptokinase expression inhibitor project, dose response (AID 1900). The class given is functional, organism-based. In general terms: A counterscreen serves to expose hits that act by an unwanted route or on another target.

For experiment [10], the target named is T8, Alkaline phosphatase, tissue-nonspecific isozyme (Homo sapiens, UniProt P05186).
T8 sequence (P05186 whole entry): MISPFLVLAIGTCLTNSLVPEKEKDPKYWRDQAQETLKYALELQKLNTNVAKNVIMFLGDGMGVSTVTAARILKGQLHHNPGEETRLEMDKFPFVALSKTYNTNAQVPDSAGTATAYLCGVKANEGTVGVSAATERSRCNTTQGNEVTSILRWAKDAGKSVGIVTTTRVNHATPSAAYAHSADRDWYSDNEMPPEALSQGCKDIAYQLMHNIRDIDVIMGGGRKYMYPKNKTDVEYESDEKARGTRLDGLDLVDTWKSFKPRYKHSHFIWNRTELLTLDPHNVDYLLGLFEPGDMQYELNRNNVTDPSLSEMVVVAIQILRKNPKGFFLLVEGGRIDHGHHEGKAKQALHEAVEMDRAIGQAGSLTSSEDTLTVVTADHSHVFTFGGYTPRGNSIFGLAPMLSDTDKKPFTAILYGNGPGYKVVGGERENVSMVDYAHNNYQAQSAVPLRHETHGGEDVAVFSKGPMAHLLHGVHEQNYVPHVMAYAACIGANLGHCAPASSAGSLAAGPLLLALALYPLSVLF
Description: potency against alkaline phosphatase TNAP – biochemical, luminescent, dose response, SAR follow-up (AID 1056).

Experiment [11] has as its target Glyceraldehyde-3-phosphate dehydrogenase (Homo sapiens, UniProt P04406).

A word on the IC50: it is the concentration at which inhibition is half-maximal. As a reminder, the EC50 is the concentration at which the effect is half-maximal. The term CC50 denotes the concentration giving 50% cytotoxicity.

Calls of active or inactive are those of the source. Cut-off read from the data, not from the text of the source, for most assays here: actives have a measured IC50 and inactives only a lower limit.

Glyceraldehyde-3-phosphate dehydrogenase, sequence (P04406 whole entry): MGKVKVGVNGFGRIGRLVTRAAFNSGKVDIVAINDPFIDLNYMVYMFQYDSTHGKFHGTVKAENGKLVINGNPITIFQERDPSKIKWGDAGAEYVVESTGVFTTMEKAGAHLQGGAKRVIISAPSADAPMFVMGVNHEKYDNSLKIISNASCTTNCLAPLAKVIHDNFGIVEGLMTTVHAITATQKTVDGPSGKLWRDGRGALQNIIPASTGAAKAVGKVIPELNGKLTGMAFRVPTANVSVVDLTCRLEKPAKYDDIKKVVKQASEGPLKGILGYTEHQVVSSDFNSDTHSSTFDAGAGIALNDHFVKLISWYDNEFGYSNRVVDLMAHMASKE

In the case of `CN(Cc1ccccc1)C(=O)COC(=O)c1cc(-c2ccc(Cl)s2)nc2ccccc12`, the IC50 in experiment [1] is 11.8 µM (active); in experiment [2], > 20 µM (inactive); on Bcl-2-related protein A1, > 20 µM (inactive).
Consider `COc1ccc(Cl)cc1C(=O)Nc1ccccc1N1CCN(C)CC1`, for which, in experiment [3], the EC50 was 5.96 µM (active).
As to `Oc1cc(Nc2ccncc2)cc2cccnc12`, the IC50 in experiment [1] was 8.54 µM (active); in experiment [2], 6.9 µM (active); at Bcl-2-related protein A1, > 20 µM (inactive); on Nonstructural protein 1, 5.11 µM (active).
In the case of `COc1ccccc1NC(=O)CCSc1ccc(C)cc1`, the IC50 at Caspase-3 is 18.1 µM (active); in experiment [4], 11.2 µM (active); in experiment [5], 34.9 µM (active); in [6], 37 µM (active).
`CCOC(=O)C1=C(COC(=O)c2cc(OC)c(OC)c(OC)c2)NC(=O)NC1C` (configuration not stated): the IC50 is 6.85 µM (active) in [1], 11.2 µM (active) in the experiment on H9c2, 8.55 µM (active) in experiment [2] and > 20 µM (inactive) on Bcl-2-related protein A1.
Take `O=C1c2cccc3cccc(c23)N1Cc1ccc(F)cc1`: the IC50 in experiment [1] is 6.78 µM (active); in experiment [2] it was 5.15 µM (active); at Bcl-2-related protein A1, > 20 µM (inactive).
For `CCCOc1ccc(C(=O)NC(=S)NNC(=O)c2c(-c3ccccc3)noc2C)cc1`, the IC50 with Vero [7] was > 25 µM (active). In addition, the results for the EC50 (in the experiment on Streptococcus; in experiment [3]; in [9]) were 596 nM (active), 2.66 µM (active) and 137 nM (active), respectively. In the experiment with Vero [8], the CC50 is 12.1 µM (active).
As for `O=S(=O)(Nc1ccc2ncccc2c1)c1ccccc1OC(F)(F)F`, the IC50 in [10] is > 100 µM (inactive); in experiment [11], > 100 µM (not active).
Regarding `COC(=O)c1ccc(N=Nc2ccccc2)cc1`, the IC50 was 11.6 µM (active) on Caspase-3, 5.11 µM (active) in [4], 13.2 µM (active) in [5] and 20.2 µM (active) in experiment [6].
Consider `COc1ccc(S(=O)(=O)n2cc(C(N)=O)c3ccccc32)cc1`, for which the results for the IC50 in [10] and in experiment [11] were > 100 µM (inactive) and > 100 µM (not active), respectively.
